Laboratory results: PMC8659164, “Effect of S–Se Bioisosteric Exchange on Affinity and Intrinsic Efficacy of Novel N-acylhydrazone Derivatives at the Adenosine A2A Receptor” (Molecules, 2021)

Molecular target: T1, adenosine A2A receptor (A2AR) (Rattus norvegicus, UniProt P30543)
T1 construct: gene Adora2a; native full-length receptor in striatum membrane preparation of adult male Wistar rats
Test: [3H]-ZM241385 competition, rat striatum membranes
Assay type: binding
Conditions: 50 mM MgCl2 (medium I), 0.5 nM [3H]-ZM241385, pH 7.4, 25 °C, 60 min; parentheses = 95% CI
From the text: [3H]-ZM241385 competition, rat striatum membranes on adenosine A2A receptor (A2AR)

T1 sequence (P30543 whole entry): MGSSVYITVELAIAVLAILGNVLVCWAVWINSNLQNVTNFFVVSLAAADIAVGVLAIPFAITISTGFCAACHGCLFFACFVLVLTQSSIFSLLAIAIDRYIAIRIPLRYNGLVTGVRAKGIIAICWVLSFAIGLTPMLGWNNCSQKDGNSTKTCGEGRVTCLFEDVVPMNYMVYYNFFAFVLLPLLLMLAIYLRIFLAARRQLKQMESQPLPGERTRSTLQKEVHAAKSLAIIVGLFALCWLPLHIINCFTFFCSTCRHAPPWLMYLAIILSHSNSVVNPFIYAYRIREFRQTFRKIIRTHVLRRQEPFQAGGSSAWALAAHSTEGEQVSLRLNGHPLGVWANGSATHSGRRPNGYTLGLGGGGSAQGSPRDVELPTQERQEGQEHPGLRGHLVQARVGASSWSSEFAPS

Row | SMILES | IC50 [µM]
1 | O=C(N/N=C/c1cccs1)c1ccc2c(c1)OCO2 [compound 1, LASSBio-294] | 38.9
2 | CN(/N=C/c1cccs1)C(=O)c1ccc2c(c1)OCO2 [compound 2, LASSBio-785] | 47.9
3 | O=C(N/N=C/c1ccc[se]1)c1ccc2c(c1)OCO2 [compound 3, N’-(Selenophen-2-yl-methylene)benzo[d][1,3] dioxole-5-carbohydrazide] | 20.9
4 | COc1cccc(C(=O)N/N=C/c2cccs2)c1 [compound 4, 3-Methoxy-N’-(thiophen-2-yl-methylene)benzohydrazide] | 10.8
5 | COc1cccc(C(=O)N/N=C/c2ccc[se]2)c1 [compound 5, 3-Methoxy-N’-(selenophen-2-yl-methylene)benzohydrazide] | 10.4
6 | CN(/N=C/c1ccc[se]1)C(=O)c1ccc2c(c1)OCO2 [compound 6, N-Methyl-N’-(selenophen-2-yl-methylene) benzo[d][1,3]dioxole-5-carbohydrazide] | 52.9
7 | COc1cccc(C(=O)N(C)/N=C/c2cccs2)c1 [compound 7, 3-Methoxy-N-methyl-N’-(thiophen-2-yl-methylene)benzohydrazide] | 22.3
8 | COc1cccc(C(=O)N(C)/N=C/c2ccc[se]2)c1 [compound 8, LASSBio-2199] | 15.4
9 | COc1cccc(C=NNC(=O)c2cccs2)c1 [compound 13, N’-(3-Methoxybenzylidene)thiophene-2-carbo-hydrazide] | 27.1
10 | COc1cccc(C=NNC(=O)c2ccc[se]2)c1 [compound 14, N’-(3-Methoxybenzylidene)selenophene-2-ca-rbohydrazide] | 16.6
